According to publication PMC8591201, “Anti-Tumor Activity of AZD4547 Against NTRK1 Fusion Positive Cancer Cells Through Inhibition of NTRKs” (Frontiers in Oncology, 2021):

Experiments:
Test in all cases: cells
Design in all cases: Anti-proliferation, 10-point dose response, CellTiter-Glo luminescence (MTT stated for KM12(Luc)), GI50 fitted in Prism
AN3-CA = settings: Homo sapiens, AN3-CA, 72 h, read-out: GI50 (µM) a
Experimental: (§1) To obtain the GI50 value of a substance, cell viability was measured using MTT (G4000, Promega, USA) for KM12(Luc) cell and Cell titer glo (G7572, Promega, USA) for other cell lines. For adherent cells, cells were seeded at 5,000 cells/well in a 96-well plate and treated with a substance one day after cell seeding. For suspension cells, 10,000 cells/well were seeded and the substance was treated after 4 h stabilization of cells. The substance was treated at 10 points of 1:3 serial dilution (0–100 µmol/L) for 72 h. For MTT assay, 15 µL dye solution was added to each well and incubated 4 h at 37°C. 100 µL of solubilization solution was added and followed 1 hr incubation. Absorbance at 570 nm of each well was recorded using EnVision microplate reader (Perkin Elmer). For Cell titer glo assay, Cell titer glo reagent was treated in each well and measured the luminescence by EnVision microplate reader (Perkin Elmer). Viable cells in each well were normalized by using 0.5% DMSO-treated wells (100%). The inhibitor dose−response curve was fitted and GI50 values were calculated using Prism 7.0 software (GraphPad). All assays were performed in duplicate and the standard deviation (SD) was determined from two independent experiments. KM12(Luc) was purchased from the JCRB cell bank. KM12 (Luc) was used within 6 months after purchase and the DNA profiles were confirmed using a short tandem repeat (STR) analysis by the Korean Cell Line Bank. KM12(Luc) cells were maintained in DMEM supplemented with 10% FBS and antibiotics. Parental Ba/F3 cells were purchased from DSMZ and were grown in RPMI1640 supplemented with 10% FBS and antibiotics in the presence of IL3, Transformed Ba/F3 cell lines were grown in the same media without IL3. Cells used in this study were negative for mycoplasma contamination. AN3-CA, HEC1A, U138, 8505C, MKN28, MKN45, A172, A375, Capan-1 HeLa, HEP3B, MCF-7 and MIA-paca-2 cells were maintained in DMEM (Welgene, Korea) supplemented with 10% FBS and antibiotics (Welgene, Korea). Otherwise, all cells were maintained in RPMI (Welgene, Korea) supplemented with 10% FBS and antibiotics (Welgene, Korea). To identify AZD4547 sensitive cell lines other than FGFR-mutant driven cancer cells, GI50 values were determined for AZD4547 against 64 different cancer cell lines, including AN3-CA used as a positive control ( Figure 1A and Table S1 ). […] Also, inhibitory activity of AZD4547 against DDR1 or FLT3 allows suppression of proliferation of U-2-OS and MV4-11 ([43]). Therefore, our attention focused on the inhibitory activity of AZD4547 against KM12(Luc) cell lines which have the TPM3-NTRK1 fusion gene. To exclude the possibility that the anti-proliferation activity of AZD4547 against KM12(Luc) is a common characteristic of FGFR inhibitors, we determined if BGJ398, a representative FGFR inhibitor, is also capable of suppressing proliferation of KM12(Luc) cells ( Figure 1B ).

DLD-1 = settings: Homo sapiens, DLD-1, 72 h, read-out: GI50 (µM) a
Experimental: as §1

HEP3B = settings: Homo sapiens, Hep3B, 72 h, read-out: GI50 (µM) a
Experimental: as §1

HuH-7 = settings: Homo sapiens, Huh-7, 72 h, read-out: GI50 (µM) a
Experimental: as §1

MDA-MB-231 = settings: Homo sapiens, MDA-MB-231, 72 h, read-out: GI50 (µM) a
Experimental: as §1

MIA-PaCa-2 = settings: Homo sapiens, MIA PaCa-2, 72 h, read-out: GI50 (µM) a
Experimental: as §1

MV-4-11 = settings: Homo sapiens, MV4-11, 72 h, read-out: GI50 (µM) a
Experimental: as §1

Molm-14 = settings: Homo sapiens, MOLM-14, 72 h, read-out: GI50 (µM) a
Experimental: as §1

PANC-1 = settings: Homo sapiens, PANC-1, 72 h, read-out: GI50 (µM) a
Experimental: as §1

PC-3 = settings: Homo sapiens, PC-3, 72 h, read-out: GI50 (µM) a
Experimental: as §1

RT-112 = settings: Homo sapiens, RT-112, 72 h, read-out: GI50 (µM) a
Experimental: as §1

SNU484 = settings: SNU-484, 72 h, read-out: GI50 (µM) a
Experimental: as §1

**Q.** How did the GI50 (AN3-CA) turn out when `COc1cc(CCc2cc(NC(=O)c3ccc(N4C[C@@H](C)N[C@@H](C)C4)cc3)n[nH]2)cc(OC)c1` [AZD4547] was run?
**A.** 0.2 µM

**Q.** And the GI50 (DLD-1)?
**A.** 27.5 µM

**Q.** What about the GI50 (HEP3B) of the same compound?
**A.** 19.7 µM

**Q.** What about the GI50 (HuH-7) of the same compound?
**A.** 1.35 µM

**Q.** And the GI50 (MDA-MB-231)?
**A.** 20.9 µM

**Q.** And the GI50 (MIA-PaCa-2)?
**A.** 12.2 µM

**Q.** What about the GI50 (MV-4-11) of the same compound?
**A.** 0.93 µM

**Q.** And the GI50 (Molm-14)?
**A.** 1.25 µM

**Q.** And the GI50 (PANC-1)?
**A.** 8.65 µM

**Q.** And the GI50 (PC-3)?
**A.** 10.6 µM

**Q.** And the GI50 (RT-112)?
**A.** 0.42 µM

**Q.** What about the GI50 (SNU484) of the same compound?
**A.** 24.6 µM
